Results taken from patent US6737383B1, “Herbicidal oxadiazolidines” (priority 1999, dated 2004).

How the values were obtained:
blackgrass = test: Test B pre/postemergence blackgrass; format: in vivo, Alopecurus myosuroides
Method in brief: (§1)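 Test chemicals in a non-phytotoxic solvent mixture with surfactant were sprayed preemergence onto planted seeds and postemergence onto plants 2 to 18 cm tall (1- to 4-leaf stage). After twelve to sixteen days in a greenhouse, injury was visually rated against untreated controls from 0 (no effect) to 10 (complete control).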

duck salad = test: Test B flood test duck salad; format: in vivo, Heteranthera limosa
Method in brief: (§2)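 Flood test on plants grown to the 2-leaf stage; treated plants kept in greenhouse twelve to sixteen days, then visually rated against controls on a 0 (no effect) to 10 (complete control) scale.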

crabgrass = test: Test B pre/postemergence crabgrass; format: in vivo, Digitaria sanguinalis
Method in brief: as §1

velvetleaf = test: Test B pre/postemergence velvetleaf; format: in vivo, Abutilon theophrasti
Method in brief: as §1

bedstraw = test: Test B pre/postemergence bedstraw; format: in vivo, Galium aparine
Method in brief: as §1

purple nutsedge = test: Test B pre/postemergence purple nutsedge; format: in vivo, Cyperus rotundus
Method in brief: as §1

smallflower flatsedge = test: Test B flood test smallflower flatsedge; format: in vivo, Cyperus difformis
Method in brief: as §2

wheat = test: Test B pre/postemergence wheat; format: in vivo, Triticum aestivum
Method in brief: as §1

surinam grass = test: Test B pre/postemergence surinam grass; format: in vivo, Brachiaria decumbens
Method in brief: as §1

giant foxtail = test: Test B pre/postemergence giant foxtail; format: in vivo, Setaria faberii
Method in brief: as §1

soybean = test: Test B pre/postemergence soybean; format: in vivo, Glycine max
Method in brief: as §1

rice = test: Test B flood test rice; format: in vivo, Oryza sativa
Method in brief: as §2

morningglory = test: Test B pre/postemergence morningglory; format: in vivo, Ipomoea hederacea
Method in brief: as §1

wild oat = test: Test B pre/postemergence wild oat; format: in vivo, Avena fatua
Method in brief: as §1

corn = test: Test B pre/postemergence corn; format: in vivo, Zea mays
Method in brief: as §1

pigweed = test: Test B pre/postemergence pigweed; format: in vivo, Amaranthus retroflexus
Method in brief: as §1

[1] = Preemergence, Rate 62 g/ha, scale of 0 to 10 where 0 is no effect and 10 is complete control
[2] = Preemergence, Rate 250 g/ha, scale of 0 to 10 where 0 is no effect and 10 is complete control
[3] = Preemergence, Rate 500 g/ha, scale of 0 to 10 where 0 is no effect and 10 is complete control
[4] = Rate 62 g/ha, Postemergence, scale of 0 to 10 where 0 is no effect and 10 is complete control
[5] = Rate 125 g/ha, Postemergence, scale 0 to 10
[6] = Rate 125 g/ha, Preemergence, scale of 0 to 10 where 0 is no effect and 10 is complete control
[7] = Rate 500 g/ha, Postemergence, scale 0 to 10, 0 no effect, 10 complete control
[8] = Rate 62 g/ha, headed Pre-emergence (flood test species), scale 0 to 10 (0 no effect, 10 complete control)
[9] = Rate 125 g/ha, Pre-emergence, flood test species, scale 0 to 10 where 0 is no effect and 10 is complete control
[10] = Rate 250 g/ha, Pre-emergence, flood-test species, scale 0 to 10, 0 is no effect, 10 is complete control
[11] = Rate 500 g/ha, Pre-emergence, flood test species, scale 0 to 10 (0 no effect, 10 complete control)

Cc1nc(C)c(Cn2c(=O)on(C(=O)N(c3ccc(F)cc3)C(C)C)c2=O)s1 [Compound 232]
Blackgrass plant response rating (blackgrass; [1]): 2
Blackgrass plant response rating (blackgrass; [2]): 8
Plant response rating, Blackgrass (blackgrass; [3]): 8
Blackgrass plant response rating (blackgrass; [4]): 0
Blackgrass plant response rating (blackgrass; [5]): 2
Blackgrass plant response rating (blackgrass; [6]): 6
Plant response rating (0 to 10; 0 is no effect, 10 is complete control), Blackgrass (blackgrass; Rate 250 g/ha, Postemergence): 6
Blackgrass plant response rating (blackgrass; [7]): 7
Ducksalad plant response rating (duck salad; [8]): 0
Ducksalad plant response rating (duck salad; [9]): 0
Ducksalad plant response rating (duck salad; [10]): 0
Ducksalad plant response rating (duck salad; [11]): 0
Crabgrass plant response rating (crabgrass; [1]): 5
Crabgrass plant response rating (crabgrass; [2]): 9
Plant response rating, Crabgrass (crabgrass; [3]): 10
Crabgrass plant response rating (crabgrass; [4]): 0
Crabgrass plant response rating (crabgrass; [5]): 1
Crabgrass plant response rating (crabgrass; [6]): 7
Plant response rating (0 to 10; 0 is no effect, 10 is complete control), Crabgrass (crabgrass; Rate 250 g/ha, Postemergence): 1
Crabgrass plant response rating (crabgrass; [7]): 2
Velvetleaf plant response rating (velvetleaf; [1]): 0
Velvetleaf plant response rating (velvetleaf; [2]): 0
Plant response rating, Velvetleaf (velvetleaf; [3]): 0
Velvetleaf plant response rating (velvetleaf; [4]): 2
Velvetleaf plant response rating (velvetleaf; [5]): 2
Velvetleaf plant response rating (velvetleaf; [6]): 0
Plant response rating (0 to 10; 0 is no effect, 10 is complete control), Velvetleaf (velvetleaf; Rate 250 g/ha, Postemergence): 2
Velvetleaf plant response rating (velvetleaf; [7]): 3
Bedstraw plant response rating (bedstraw; [1]): 0
Bedstraw plant response rating (bedstraw; [2]): 0
Plant response rating, Bedstraw (bedstraw; [3]): 0
Bedstraw plant response rating (bedstraw; [4]): 0
Bedstraw plant response rating (bedstraw; [5]): 0
Bedstraw plant response rating (bedstraw; [6]): 0
Plant response rating (0 to 10; 0 is no effect, 10 is complete control), Bedstraw (bedstraw; Rate 250 g/ha, Postemergence): 2
Bedstraw plant response rating (bedstraw; [7]): 2
Nutsedge plant response rating (purple nutsedge; [1]): 0
Nutsedge plant response rating (purple nutsedge; [4]): 0
Nutsedge plant response rating (purple nutsedge; [5]): 0
Nutsedge plant response rating (purple nutsedge; [6]): 0
Plant response rating (0 to 10; 0 is no effect, 10 is complete control), Nutsedge (purple nutsedge; Rate 250 g/ha, Postemergence): 0
Nutsedge plant response rating (purple nutsedge; [7]): 0
S. Flatsedge plant response rating (smallflower flatsedge; [8]): 0
S. Flatsedge plant response rating (smallflower flatsedge; [9]): 0
S. Flatsedge plant response rating (smallflower flatsedge; [10]): 0
S. Flatsedge plant response rating (smallflower flatsedge; [11]): 0
Wheat plant response rating (wheat; [1]): 0
Wheat plant response rating (wheat; [2]): 0
Plant response rating, Wheat (wheat; [3]): 0
Wheat plant response rating (wheat; [4]): 0
Wheat plant response rating (wheat; [5]): 0
Wheat plant response rating (wheat; [6]): 0
Plant response rating (0 to 10; 0 is no effect, 10 is complete control), Wheat (wheat; Rate 250 g/ha, Postemergence): 0
Wheat plant response rating (wheat; [7]): 0
B. signalgrass plant response rating (surinam grass; [1]): 0
B. signalgrass plant response rating (surinam grass; Preemergence, Rate 250 g/ha, scale 0 to 10, 0 is no effect, 10 is complete control): 1
Plant response rating, B. signalgrass (surinam grass; [3]): 5
B. signalgrass plant response rating (surinam grass; [4]): 0
B. signalgrass plant response rating (surinam grass; Rate 125 g/ha, Postemergence, scale 0 (no effect) to 10 (complete control)): 0
B. signalgrass plant response rating (surinam grass; [6]): 0
Plant response rating (0 to 10; 0 is no effect, 10 is complete control), B. signalgrass (surinam grass; Rate 250 g/ha, Postemergence): 1
B. signalgrass plant response rating (surinam grass; [7]): 8
Giant foxtail plant response rating (giant foxtail; [1]): 6
Giant foxtail plant response rating (giant foxtail; [2]): 8
Plant response rating, Giant foxtail (giant foxtail; [3]): 9
Giant foxtail plant response rating (giant foxtail; [4]): 0
Giant foxtail plant response rating (giant foxtail; [5]): 0
Giant foxtail plant response rating (giant foxtail; [6]): 8
Plant response rating (0 to 10; 0 is no effect, 10 is complete control), Giant foxtail (giant foxtail; Rate 250 g/ha, Postemergence): 2
Giant foxtail plant response rating (giant foxtail; [7]): 3
Soybean plant response rating (soybean; [1]): 0
Soybean plant response rating (soybean; [2]): 0
Plant response rating, Soybean (soybean; [3]): 0
Soybean plant response rating (soybean; [4]): 3
Soybean plant response rating (soybean; [5]): 3
Soybean plant response rating (soybean; [6]): 0
Plant response rating (0 to 10; 0 is no effect, 10 is complete control), Soybean (soybean; Rate 250 g/ha, Postemergence): 4
Soybean plant response rating (soybean; [7]): 4
Rice plant response rating (rice; [8]): 0
Rice plant response rating (rice; [9]): 0
Rice plant response rating (rice; [10]): 0
Rice plant response rating (rice; [11]): 0
Morningglory plant response rating (morningglory; [1]): 0
Morningglory plant response rating (morningglory; [2]): 0
Plant response rating, Morningglory (morningglory; [3]): 0
Morningglory plant response rating (morningglory; [4]): 3
Morningglory plant response rating (morningglory; [5]): 8
Morningglory plant response rating (morningglory; [6]): 0
Plant response rating (0 to 10; 0 is no effect, 10 is complete control), Morningglory (morningglory; Rate 250 g/ha, Postemergence): 8
Morningglory plant response rating (morningglory; [7]): 8
Wild oats plant response rating (wild oat; [1]): 0
Wild oats plant response rating (wild oat; [2]): 3
Plant response rating, Wild oats (wild oat; [3]): 8
Wild oats plant response rating (wild oat; [4]): 0
Wild oats plant response rating (wild oat; [5]): 0
Wild oats plant response rating (wild oat; [6]): 0
Plant response rating (0 to 10; 0 is no effect, 10 is complete control), Wild oats (wild oat; Rate 250 g/ha, Postemergence): 0
Wild oats plant response rating (wild oat; [7]): 0
Corn plant response rating (corn; [1]): 0
Corn plant response rating (corn; [2]): 0
Plant response rating, Corn (corn; [3]): 0
Corn plant response rating (corn; [4]): 0
Corn plant response rating (corn; [5]): 0
Corn plant response rating (corn; [6]): 0
Plant response rating (0 to 10; 0 is no effect, 10 is complete control), Corn (corn; Rate 250 g/ha, Postemergence): 0
Corn plant response rating (corn; [7]): 0
Redroot pigweed plant response rating (pigweed; [1]): 0
Redroot pigweed plant response rating (pigweed; [2]): 5
Plant response rating, Redroot pigweed (pigweed; [3]): 7
Redroot pigweed plant response rating (pigweed; [4]): 2
Redroot pigweed plant response rating (pigweed; [5]): 3
Redroot pigweed plant response rating (pigweed; [6]): 0
Plant response rating (0 to 10; 0 is no effect, 10 is complete control), Redroot pigweed (pigweed; Rate 250 g/ha, Postemergence): 6
Redroot pigweed plant response rating (pigweed; [7]): 4
